Data set [1] deals with T1, human D2L (Homo sapiens, UniProt P14416).
T1 construct: expressed in transfected cells
The data set can be described thus: In vitro inhibition of [3H]-ligand binding to human D2L receptor. The settings on record: [3H]N-methyl spiperone, CHO cell membranes, 37° C.; read-out: D2 (Ki μM). The protocol: (§1) Cells stably expressing the human homologs of the receptors (dopamine D2L, serotonin 5HT2A and 5HT2C, α1A adrenergic; cloned and expressed at Hoechst Marion Roussel; Grandy et al., 1989; Monsma et al., 1993; Schwinn et al., 1995) were grown; cell membranes were prepared, and kept frozen until used (Kongsamut et al., 1996). […] All binding parameters were optimized at Hoechst Marion Roussel; ligand Kds were determined using both saturation analysis (Scatchard) as well as kinetic analysis (association and dissociation rates). Each batch of membrane was validated by checking the ligand Kd, and rank order of potency of selected standard compounds. Assays for the serotonin 5HT2A and dopamine D2L receptors were conducted at 37° C. in a Tris buffer containing salts (50 mM Tris Buffer, pH 7.7; 120 mM NaCl; 5 mM KCl; 2 mM CaCl2; 1 mM MgCl2), while the serotonin 5-HT2C and α1A adrenergic receptor assays used a different buffer without salts (50 mM Tris, 4 mM CaCl2 and 1% ascorbate, pH 7.4). […]
(§2) Membranes were rapidly thawed and diluted to an appropriate concentration (between 20-150 μg protein/assay point depending on receptor expression level) in Tris buffer and homogenized. […] Microscint scintillation cocktail (40 μl) were added and the filter plates were counted in a Packard Top Count scintillation counter.

In data set [2] the target is T2, human 5-HT2c (Homo sapiens, UniProt P28335).
T2 construct: expressed in transfected cells
T2 sequence (P28335 33-458): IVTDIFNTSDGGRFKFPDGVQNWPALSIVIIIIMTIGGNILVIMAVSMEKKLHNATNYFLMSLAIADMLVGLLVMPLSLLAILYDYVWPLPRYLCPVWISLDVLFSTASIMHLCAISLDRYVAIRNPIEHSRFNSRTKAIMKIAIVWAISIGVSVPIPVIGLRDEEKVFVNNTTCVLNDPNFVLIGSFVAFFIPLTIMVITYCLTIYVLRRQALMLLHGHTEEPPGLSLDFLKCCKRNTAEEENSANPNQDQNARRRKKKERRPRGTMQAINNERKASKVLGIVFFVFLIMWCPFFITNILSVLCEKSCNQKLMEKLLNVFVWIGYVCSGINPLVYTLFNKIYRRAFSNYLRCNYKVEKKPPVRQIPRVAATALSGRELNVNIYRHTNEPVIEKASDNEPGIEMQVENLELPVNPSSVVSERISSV
Kind of data set: In vitro inhibition of [3H]-ligand binding to human 5-HT2C receptor. The settings on record: [3H]mesulergine, CHO cell membranes. Here is the method:
as §1, §2

Data set [3] has as its target T3, human 5-HT2A (Homo sapiens, UniProt P28223).
T3 construct: expressed in transfected cells
The data set can be described thus: In vitro inhibition of [3H]-ligand binding to human 5-HT2A receptor. Here is the method:
Cells stably expressing the human homologs of the receptors (dopamine D2L, serotonin 5HT2A and 5HT2C, α1A adrenergic; cloned and expressed at Hoechst Marion Roussel; Grandy et al., 1989; Monsma et al., 1993; Schwinn et al., 1995) were grown; cell membranes were prepared, and kept frozen until used (Kongsamut et al., 1996). The relevance of these binding sites has been extensively discussed in the literature (see for example: Carlsson & Carlsson, 1990; Creese et al., 1976; Gorman & Vargas, 1995; Meltzer et al., 1989). All binding parameters were optimized at Hoechst Marion Roussel; ligand Kds were determined using both saturation analysis (Scatchard) as well as kinetic analysis (association and dissociation rates). Each batch of membrane was validated by checking the ligand Kd, and rank order of potency of selected standard compounds. […]
Membranes were rapidly thawed and diluted to an appropriate concentration (between 20-150 μg protein/assay point depending on receptor expression level) in Tris buffer and homogenized. […] Microscint scintillation cocktail (40 μl) were added and the filter plates were counted in a Packard Top Count scintillation counter. Data were analyzed to determine Ki's for compounds of interest (Prusoff & Cheng, […]).Table: Receptor Binding Parameters.

For data set [4], the target named is T4, human α1A (Homo sapiens, UniProt P35348).
T4 construct: expressed in transfected cells
T4 sequence (P35348 1-466): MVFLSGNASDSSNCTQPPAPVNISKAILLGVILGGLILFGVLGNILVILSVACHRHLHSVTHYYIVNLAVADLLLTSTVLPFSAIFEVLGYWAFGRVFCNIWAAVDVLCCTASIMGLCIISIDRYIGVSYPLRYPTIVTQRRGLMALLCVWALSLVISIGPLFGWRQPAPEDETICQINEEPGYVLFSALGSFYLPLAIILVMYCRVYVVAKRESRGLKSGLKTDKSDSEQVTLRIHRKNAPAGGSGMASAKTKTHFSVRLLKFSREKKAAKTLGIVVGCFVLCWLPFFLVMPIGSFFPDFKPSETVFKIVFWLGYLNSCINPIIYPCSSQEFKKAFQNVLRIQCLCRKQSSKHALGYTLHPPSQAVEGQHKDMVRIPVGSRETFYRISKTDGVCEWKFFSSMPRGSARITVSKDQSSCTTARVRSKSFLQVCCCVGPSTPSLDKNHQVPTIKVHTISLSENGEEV
Kind of data set: In vitro inhibition of [3H]-ligand binding to human α1A adrenergic receptor. The following applies: [3H]prazosin, CHO cell membranes. Here is the method: as §1, §2

Data set [5] is described as follows: In vitro BBMEC permeability (transport studies). It is filed as in vitro ADME. The settings on record: bovine, mean±standard deviation. Here is the method:
The procedure was performed according to: Kenneth L. Audus et al., Brain Microvessel Endothelial Cell Culture System (Chapter 13) pp 239-258. In Models for Assessing Drug Absorption and Metabolism, Ronald T. Borchardt et al. eds., Plenum Press, New York 1996, incorporated herein by reference.

T3 sequence (P28223 whole entry): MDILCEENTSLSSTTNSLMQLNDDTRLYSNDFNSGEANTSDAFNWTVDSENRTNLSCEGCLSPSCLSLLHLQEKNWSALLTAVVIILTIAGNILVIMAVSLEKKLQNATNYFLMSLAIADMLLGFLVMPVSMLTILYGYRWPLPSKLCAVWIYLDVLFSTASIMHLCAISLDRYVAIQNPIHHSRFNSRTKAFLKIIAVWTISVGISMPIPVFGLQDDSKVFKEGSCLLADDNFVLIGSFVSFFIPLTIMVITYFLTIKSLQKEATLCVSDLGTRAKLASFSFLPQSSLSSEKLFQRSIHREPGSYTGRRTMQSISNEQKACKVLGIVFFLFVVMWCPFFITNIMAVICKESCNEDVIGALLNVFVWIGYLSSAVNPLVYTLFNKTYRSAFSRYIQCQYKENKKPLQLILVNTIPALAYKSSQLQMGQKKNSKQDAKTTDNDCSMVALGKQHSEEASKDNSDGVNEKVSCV
T1 sequence (P14416 whole entry): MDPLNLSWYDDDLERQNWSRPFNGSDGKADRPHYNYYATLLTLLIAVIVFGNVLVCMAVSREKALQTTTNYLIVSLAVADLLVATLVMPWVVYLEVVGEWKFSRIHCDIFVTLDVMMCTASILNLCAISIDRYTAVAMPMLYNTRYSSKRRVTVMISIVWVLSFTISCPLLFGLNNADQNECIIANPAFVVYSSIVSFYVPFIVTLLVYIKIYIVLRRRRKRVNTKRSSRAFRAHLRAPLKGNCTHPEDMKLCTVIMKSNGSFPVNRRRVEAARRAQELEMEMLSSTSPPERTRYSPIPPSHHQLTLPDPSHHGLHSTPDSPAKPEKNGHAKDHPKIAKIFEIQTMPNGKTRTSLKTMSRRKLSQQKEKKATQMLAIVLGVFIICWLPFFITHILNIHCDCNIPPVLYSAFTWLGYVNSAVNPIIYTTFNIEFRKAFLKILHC

The Ki is the equilibrium dissociation constant of an inhibitor or competing ligand from its target. Consider `COc1c(OS(=O)(=O)O)cccc1C(O)C1CCN(CCc2ccc(F)cc2)CC1` (stereo not drawn) [Example 1H, Sulfuric acid mono-(+)-[3-(-{1-[2-(4-fluoro-phenyl)-ethyl]-piperidin-4-yl}-hydroxy-methyl)-2-methoxy-phenyl] ester], for which the Ki was above 1 µM in data set [1]; above 1 µM in data set [2]; 0.16 µM in data set [3] ([3H]N-methyl spiperone, BHK cell membranes, 37° C.); above 1 µM in data set [4].
In general, Papp refers to the rate of passage across a membrane or cell layer, normalised by area and donor concentration. The compound `OC[C@@H](O)[C@@H](O)[C@H](O)[C@H](O)CO` [Mannitol (standard), Mannitol] showed a Papp at 5.4 μM in data set [5] of 27.6 ± 2.3 ×10⁻⁶ cm/s.
By Kd is commonly meant the constant that tells how readily two partners part at equilibrium. Low values mean higher affinity, high ones lower affinity. In data set [3] (human 5-HT2A, BHK, saturation (Scatchard) and kinetic analysis), `CN1CN(c2ccccc2)C2(CCN(CCCC(=O)c3ccc(F)cc3)CC2)C1=O` [[^3H]N-methyl spiperone, reference compound] showed a dissociation constant Kd of 0.92 nM.

The values above are taken from patent US6716986B2, “Sulfuric acid mono-[3-({1-[2-(4-fluoro-phenyl)-ethyl]-piperidin-4-YL}-hydroxy-methyl)-2-methoxy-phenyl]ester” (Aventis Pharmaceuticals Inc., priority 1999, dated 2004).
